One compound from patent US8101773B2, “Hydroxy methyl phenyl pyrazolyl urea compounds useful in the treatment of cancer” (Bayer Healthcare LLC, priority 2006, dated 2012) can be followed below.

In one assay the target is BaF3-Abl(T315I) (Homo sapiens, UniProt P00519, T315I, cells depend on it). Description: Cell proliferation assay, BaF3-Abl(T315I). To be noted: read-out: Cell proliferation IC50.
Assay [1] deals with K562 (human cell line expressing wild type Bcr-Abl). Description: Cell proliferation assay, K562. Particulars: K562, read-out: Cell proliferation IC50 (M).
The nature of assay [2]: In vitro tumor cell proliferation assay (Cell Titre-Glo), cell lines of interest. It is filed as cell-based. Particulars: 72 hours, Cell Titer Glo; read-out: antiproliferative properties (IC50) in one or more cell lines of interest. An excerpt:
In vitro Tumor Cell Proliferation Assay
(ATP-based viability assays read luminescence as a measure of living cells.)

In a further assay the target is BaF3-Abl(wt) (Homo sapiens, UniProt P00519). Description: Cell proliferation assay, BaF3-Abl(wt). To be noted: read-out: Cell proliferation IC50.
The subject of assay [3] is BaF3 parental cell line that does not express Bcr-Abl. Description: Cell proliferation assay, BaF3 parental cell line. To be noted: Mus musculus, BaF3, read-out: cell proliferation IC50.
In another assay the target is T1, Bcr-Abl-wt kinase (Homo sapiens, UniProt P00519).
T1 sequence (P00519 242-493 limits assumed): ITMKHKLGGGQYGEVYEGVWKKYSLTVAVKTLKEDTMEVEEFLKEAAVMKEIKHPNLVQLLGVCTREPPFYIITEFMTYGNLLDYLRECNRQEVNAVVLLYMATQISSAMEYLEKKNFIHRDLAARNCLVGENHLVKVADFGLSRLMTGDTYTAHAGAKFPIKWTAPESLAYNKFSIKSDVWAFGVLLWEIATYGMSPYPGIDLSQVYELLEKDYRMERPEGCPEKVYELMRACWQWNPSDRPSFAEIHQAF
Description: Bcr-Abl wild type biochemical assay (MBP phosphorylation, 33P-ATP). To be noted: 50 μM ATP. Here is the method: (§1) Bcr-Abl Wild Type and Mutant T315I Biochemical Assay
(§2) Bcr-Abl-wt or mutant Bcr-Abl-T3151 kinase (0.17 nM) was incubated with Myelin Basic Protein (MBP, 2 μM) in assay buffer consisting of 50 mM Tris pH 7.5, 10 mM MgCl2, 1 mM EGTA, 2 mM DTT, 50 μM ATP and 0.4 μCi of ^33P-ATP. Test compounds were added at varying concentrations (final DMSO conc=1%) prior to the addition of ATP. The reaction mixture was incubated for 1 hour at 32° C. The reaction was then stopped by addition of phosphoric acid (final conc=1%) and samples were transferred to filtermats and read in a betaplate reader. Inhibition of MBP phosphorylation by Bcr-Abl-wt or Bcr-Abl-T3151 was analyzed by using a 4 parameter fit and in-house software.

In assay [4] the target is T2, Flk-1 (murine VEGFR-2) kinase domain (Mus musculus, UniProt P35918).
T2 construct: 7 nM Flk-1 (kinase domain)
Description: Flk-1 (murine VEGFR-2) biochemical assay, TR-FRET. Particulars: 10 μM ATP. The method, then:
Flk-1 (Murine VEGFR-2) Biochemical Assay
This assay was performed in 96-well opaque plates (Costar 3915) in the TR-FRET format. Reaction conditions were as follows: 10 μM ATP, 25 nM poly GT-biotin, 2 nM Eu-labelled phospho-Tyr Ab (PY20 Perkin Elmer), 10 nM APC (Perkin Elmer), 7 nM Flk-1 (kinase domain), 1% DMSO, 50 mM HEPES pH 7.5, 10 mM MgCl2, 0.1 mM EDTA, 0.015% BRIJ, 0.1 mg/mL BSA, 0.1% mercapto-ethanol). Reaction was initiated upon addition of enzyme. Final reaction volume in each well was 100 μL. Plates were read at both 615 and […] on a Perkin Elmer Victor V Multilabel counter at about 1.5-2.0 hours after reaction initiation. Signal was calculated as a ratio: (665 nm/615 nm)*10000 for each well.
On the technique in general: TR-FRET usually uses a lanthanide donor and a delayed reading to cut background.

The next assay addresses BaF3-Abl(M351T) (Homo sapiens, UniProt P00519, M351T, cells depend on it). Description: Cell proliferation assay, BaF3-Abl(M351T). Particulars: read-out: Cell proliferation IC50.
Assay [5] concerns the target T3, human recombinant c-Met intracellular kinase domain (Homo sapiens, UniProt P08581).
T3 construct: C-terminal HIS-tagged intracellular kinase domain (956 to 1390 amino acids) human recombinant c-Met; His tag (C)
Description: c-Met biochemical assay, ELISA format. To be noted: 0.2 μM ATP. The method, then: An ELISA format was used for the c-Met biochemical assay. This assay uses the C-terminal HIS-tagged intracellular kinase domain (956 to 1390 amino acids) human recombinant c-Met in 96-well plates. 96-Well plates (Costar #9018) coated with poly(GluTyr) (Sigma # P0275) were used in this assay. The poly(GluTyr) substrate coated on the plate was phosphorylated in a 100 μL reaction volume with 2 nM c-Met protein in an assay buffer (50 mM HEPES pH7.0, 5 mM MnCl2, 0.1% BSA, 0.5 mM sodium orthovanadate, 0.1% β-mercaptoethanol), with 0.2 μM ATP (Sigma #A7699). […] After 25 minutes of incubation, the assay reaction was stopped with 25 μL of 100 mM EDTA. The plates were then washed, and wells were treated with 100 μL of 80 ng/mL anti-4G10-HRP antibody (Upstate #16-105) for 1 h. Plates were washed one final time, and were developed with 100 μL 3,3′,5,5′-TMB (Sigma #T8665), and quenched with 100 μL 1M HCl. Plates were read on a Victor 2 plate reader (Perkin Elmer) and IC50 analysis and calculation were performed using in-house software.

Another assay deals with BaF3-Abl(E255K) (Homo sapiens, UniProt P00519, E255K, cells depend on it). Description: Cell proliferation assay, BaF3-Abl(E255K). To be noted: read-out: Cell proliferation IC50.
The target of the next assay is BaF3-Abl(Y253F) (Homo sapiens, UniProt P00519, Y253F, cells depend on it). Description: Cell proliferation assay, BaF3-Abl(Y253F). Particulars: read-out: Cell proliferation IC50.
The target in assay [6] is T4, mutant Bcr-Abl-T3151 kinase (Homo sapiens, UniProt P00519, T315I).
T4 sequence (P00519 242-493 T315I limits assumed): T1 sequence (P00519 242-493 limits assumed) with T74I
Description: Bcr-Abl mutant T315I biochemical assay (MBP phosphorylation, 33P-ATP). To be noted: 50 μM ATP. Here is the method: as §1, §2

The structures appear in SMILES notation. Positions count from the first letter of the chain named. A value given as a limit tells only on which side of the number the result lay.

T2 sequence (P35918 832-1160 limits assumed): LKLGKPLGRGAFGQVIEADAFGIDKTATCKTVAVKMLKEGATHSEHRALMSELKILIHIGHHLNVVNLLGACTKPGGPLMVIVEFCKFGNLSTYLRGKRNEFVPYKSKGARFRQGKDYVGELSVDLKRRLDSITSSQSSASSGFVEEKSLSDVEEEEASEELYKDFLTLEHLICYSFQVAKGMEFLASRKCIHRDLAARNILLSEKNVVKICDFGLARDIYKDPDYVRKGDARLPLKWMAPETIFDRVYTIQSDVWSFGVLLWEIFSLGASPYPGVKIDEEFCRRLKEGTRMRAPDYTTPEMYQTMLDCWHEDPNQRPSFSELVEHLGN
T3 sequence (P08581 956-1390): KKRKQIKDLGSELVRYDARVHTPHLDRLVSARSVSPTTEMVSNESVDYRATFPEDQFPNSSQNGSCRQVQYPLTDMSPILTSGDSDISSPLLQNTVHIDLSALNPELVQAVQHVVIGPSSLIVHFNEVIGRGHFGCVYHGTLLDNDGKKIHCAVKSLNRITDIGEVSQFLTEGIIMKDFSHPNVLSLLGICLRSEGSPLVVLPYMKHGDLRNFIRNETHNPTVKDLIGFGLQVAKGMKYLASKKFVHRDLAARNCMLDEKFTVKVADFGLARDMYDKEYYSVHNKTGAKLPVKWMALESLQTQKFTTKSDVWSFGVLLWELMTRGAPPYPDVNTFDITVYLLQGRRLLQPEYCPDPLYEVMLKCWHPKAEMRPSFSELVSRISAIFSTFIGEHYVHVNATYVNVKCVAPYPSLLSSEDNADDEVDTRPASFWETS

Take `CNC(=O)c1cc(Oc2ccc(NC(=O)Nc3cc(C(C)(C)C)nn3-c3cccc(CO)c3)c(F)c2)ccn1` [Example 1, 4-{4-[({3-tert-Butyl-1-[3-(hydroxymethyl)phenyl]-1H-pyrazol-5-yl}carbamoyl)amino]-3-fluorophenoxy}-N-methylpyridine-2-carboxamide]: the GI50 at BaF3-Abl(T315I) was 34.1 nM; at BaF3-Abl(wt) it was 3.84 nM; at BaF3-Abl(M351T), 8.11 nM; at BaF3-Abl(E255K), 50.3 nM; on BaF3-Abl(Y253F), 5.64 nM. Moreover, the IC50 in assay [1] is 1.58e-09 M; in assay [2], less than 5000 nM; in assay [3], greater than 3000 nM; on Bcr-Abl-wt kinase, less than 500 nM; in [4], less than 500 nM; in [5], less than 500 nM. Also, the IC50 in assay [6] is less than 500 nM.
